{"source": "patent US12053446B1", "about": "“Methods for the prevention and treatment of hearing loss using Oseltamivir” (Ting Therapeutics LLC, priority 2022, dated 2024)", "key": {"adult P42 FVB mice [1]": {"test_system": "adult P42 FVB mice", "experiment": "noise-induced hearing loss in adult mice, Oseltamivir treatment 24 hours after noise exposure", "assay_type": "in vivo, mouse", "excerpt": "The experimental procedures for the data shown in FIGS. 2A-B are as follows: Animals were anesthetized with avertin. Subcutaneous needle electrodes were inserted behind the pinna (inverting), vertex of the skull (non-inverting) and base of the tail (ground). Tone bursts of 5 ms duration with 0.5 ms cosine-squared envelopes delivered at a rate of 21 stimuli per second with alternating polarity were generated using BioSigRZ software and RZ6 multi I/O processor system (Tucker-Davis Technologies, FL). Stimuli were presented as open field via a speaker (MF1: TDT, FL) placed 10 cm in front of the pinna of the animal. Evoked responses were amplified (20×), bandpass filtered (300-3,000 Hz) and average of 512 responses of 10 ms duration was recorded. Stimulus intensity was decreased in 5 dB increments, starting from 100 dB SPL to 0 dB SPL. Thresholds at 4, 5.6, 8, 16, 22.6, 32, 45.2, and 64 kHz were identified by visual inspection from stacked waveforms as the lowest level at which reproducible response could be identified. Before the start of every session, stimulus presenting speaker (MF1) was calibrated with a ¼″ microphone (PCB-378C10; PCB Piezotronics, NY) that was also placed 10 cm in front of the speaker. Similar experiments have been previously described in Rai V. et al., Sci Rep. 2020 Sep. 16; 10(1):15167.\nNow referring to FIG. 3A, adult P42 FVB mice began treatment with Oseltamivir administered oral gavage at 100 mg/kg body weight twice daily for three days beginning 24 hours following noise exposure of 100 dB, 8-16 kHz octave band, for two hours. Now referring to FIG. 3B, auditory brainstem response (ABR) were recorded 14 days after noise exposure of 100 dB, 8-16 kHz octave band, for two hours. […] Control is shown as carrier. Statistical analysis was done with repeated measures ANOVA between groups. Mean±SEM, P=**<0.01, ***<0.001, compared to noise alone by two-way ANOVA with Bonferroni post-hoc test.\nNow referring to […], amplitudes of auditory Brainstem Response wave 1 from auditory brainstem response recording of FIG. 3A. The auditory Brainstem Response wave-1 amplitude represents the summed activity of the cochlear nerve. Mean wave-1 amplitudes was measured in the control and Oseltamivir-treated mice before and after noise exposure. Amplitudes from the 90 dB SPL stimuli were compared between groups using a two-factor ANOVA (group× frequency), and difference was detected between the noise alone group to Oseltamivir plus noise. at 14 days post-noise exposure.\nNow referring to FIG. 3D, Distortion Product Otoacoustic Emissions (DPOAE) threshold shifts were measured in adult FVB mice 14 days after noise exposure of 100 dB, 8-16 kHz octave band, for two hours. DPOAE audiograms provide a direct indicator of cochlear sensitivity at the level of the OHC. […] Control is shown as carrier. Statistical analysis was done with repeated measures ANOVA between groups. Mean±SEM, P=**<0.01, ***<0.001, compared to noise alone by two-way ANOVA with Bonferroni post-hoc test.\nNow referring to FIG. 3F, Oseltamivir administered post-noise exposure is shown to increase number of CtBP2 puncta. Number of CtBP2 puncta per IHC at the 16 kHz cochlear region were counted, data shown as mean±SEM, P=**<0.01, ***<0.001 by one-way ANOVA with Bonferroni post-hoc test, n=6-7 cochleae. An average of 4 CtBP2 puncta per IHC are restored compared to group exposed to noise without Oseltamivir treatment.\nExperimental procedure for distortion product otoacoustic emissions (DPOAE) measurements, primary tones were set to generate 2f1-f2 distortion products at frequencies between 1 and 50 kHz, DPOAEs were measured for levels of f1 ranging from 10 to 80 dB SPL, with the levels of the f2 tone set 10 dB below that of the f1 tone. Similar experiments are described in Lukashkina A. V. et al., Scientific reports, July 12; 7(1), 5185. (2017). Similar Ctpb2/MyosinVI experiments are described in Liu Z et al., PLoS One. Feb. 20, 2014; 9(2):e89377 (2014)."}, "[2]": {"test_system": "P3 FVB mouse cochlear explants", "experiment": "cisplatin-induced hair cell death in P3 FVB mouse cochlear explants", "assay_type": "cell-based", "procedure": "Now referring to FIG. 1A, a representation of the chemical structure of Oseltamivir phosphate is shown. […] The explants were treated for 24 hours. […] Percent protection for compound at the tested dosages were then plotted to show dose response curves, and IC50 were calculated.\nExperimental procedures for the images shown in FIG. 1C are as follows: Mice were approved by the Institutional Animal Care and Use Committee (IACUC) at the Creighton University. Inner ears were collected from the post-natal day 3 (P3) FVB mice and transferred onto a filter (Millicell, PICM03050; Millipore) soaked in culturing medium. The filter was placed in 6-well culture plates with 1.2 mL medium outside the filter. […] Cells may be maintained in culture with the aid of Matrigel as previously described in Kelley and Driver, Curr. Protoc. Neurosci."}, "adult P42 FVB mice [3]": {"test_system": "adult P42 FVB mice", "experiment": "noise-induced hearing loss in adult mice, Oseltamivir pre-treatment before noise exposure", "assay_type": "in vivo, mouse", "procedure": "Now referring to FIG. 2A, adult P42 FVB mice began treatment with Oseltamivir administered oral gavage at 100 mg/kg body weight twice daily for three days once 45 minutes before exposure and then for two days after noise exposure. Now referring to FIG. 2B, auditory brainstem response (ABR) were recorded 14 days after noise exposure of 100 dB, 8-16 kHz octave band, for two hours. […] Control is shown as carrier. Statistical analysis was done with repeated measures ANOVA between groups. Mean±SEM, P=**<0.01, ***<0.001, compared to noise alone by two-way ANOVA with Bonferroni post-hoc test.\nThe experimental procedures for the data shown in FIGS. 2A-B are as follows: Animals were anesthetized with avertin. Subcutaneous needle electrodes were inserted behind the pinna (inverting), vertex of the skull (non-inverting) and base of the tail (ground). Tone bursts of 5 ms duration with 0.5 ms cosine-squared envelopes delivered at a rate of 21 stimuli per second with alternating polarity were generated using BioSigRZ software and RZ6 multi I/O processor system (Tucker-Davis Technologies, FL). Stimuli were presented as open field via a speaker (MF1: TDT, FL) placed 10 cm in front of the pinna of the animal. Evoked responses were amplified (20×), bandpass filtered (300-3,000 Hz) and average of 512 responses of 10 ms duration was recorded. […]"}, "[4]": {"test_system": "inner ear cell line HEI-OC1", "experiment": "high-throughput screen of FDA-approved drugs for cisplatin-induced cell-death protection", "assay_type": "cell-based", "details": "1,300 FDA-approved drugs screened", "excerpt": "Oseltamivir is an oral widely used anti-viral drug. Significant protection by Oseltamivir against hearing loss is shown herein in doses equivalent to those approved for human use."}, "[5]": {"test_system": "adult 12 weeks old CBA/CaJ mice", "experiment": "cisplatin-induced hearing loss in adult mice, multi-dose cisplatin regimen", "assay_type": "in vivo, mouse", "procedure": "Now referring to FIG. 4B, mice exposed to multi-dose cisplatin treatments show reduced reduction in wave 1 amplitude 16 kHz recording form 30-90 dB SPL, and Oseltamivir treatment at the dose of 50 mg/kg increased the 16-kHz wave-1 amplitude at 90 SPL.\nNow referring to FIG. 4C, Oseltamivir (10 mg/kg and 50 mg/kg doses) increased the percent of total mice surviving 40 days after beginning of cisplatin exposure. Auditory Brainstem Response threshold shifts recorded as previously described. Similar wave-1 amplitude recordings have been described Hazlitt J et al., Med. Chem. 61, 7700-7709 (2018); Teitz et al., J. Exp. Med. 215, 1187-1203 (2018).\nNow referring to FIG. 5A, confocal images of myosin-VI stained basal, middle, apical turn cochlear regions show outer hair cells of mice exposed to treatment of 50 mg/kg Oseltamivir alone or exposed to cisplatin with or without treatment of 10 or 50 mg/kg Oseltamivir. Now referring to FIG. 5B, count of outer hair cells per 160 μm for cochlear regions. Mean±SEM, P=*<0.05, **<0.01, compared to noise alone by two-way ANOVA with Bonferroni post-hoc test. N=5 cochleae counted per bar. Similar Myosin VI experiments are described in Liu Z et al., PLoS One. Feb. 20, 2014; 9(2):e89377 (2014)."}}}
{"smiles": "CCOC(=O)C1=C[C@@H](OC(CC)CC)[C@H](NC(C)=O)[C@@H](N)C1", "note": "[Oseltamivir, oseltamivir phosphate]", "values": [{"measurement": "ABR threshold shift vs noise-exposed control", "setting": "adult P42 FVB mice [1]; 100 mg/kg oral twice daily, three days, beginning 24 hours after noise, 14 days after noise", "value": "Significant protection against hearing loss"}, {"measurement": "loss of CtBP2-puncta in inner hair cells vs noise alone", "setting": "adult P42 FVB mice [1]; 16 kHz cochlear region", "value": "partially restores"}, {"measurement": "CtBP2 puncta per IHC restored vs noise without Oseltamivir", "setting": "adult P42 FVB mice [1]; 16 kHz cochlear region, post-noise administration, average", "value": 4}, {"measurement": "ABR wave-1 amplitude vs noise exposure only group", "setting": "adult P42 FVB mice [1]; 16 kHz, 90 dB SPL, 14 days post-noise exposure", "value": "higher amplitudes"}, {"measurement": "DPOAE threshold shift vs noise-exposed control", "setting": "adult P42 FVB mice [1]; 14 days after noise exposure of 100 dB, 8-16 kHz, two hours", "value": "Significant protection against hearing loss"}, {"measurement": "protection, auditory Brainstem Response and DPOAE measurements", "setting": "adult P42 FVB mice [1]; oral, 45 minutes before noise exposure and 24 hours after noise exposure, three consecutive days", "value": "20-28 dB"}, {"measurement": "protection against noise-induced hearing loss (ABR threshold shift)", "setting": "adult P42 FVB mice [1]; treatment 24 hours after noise exposure, 100, 50 and 10 mg/kg, 8, 16, 32 kHz", "value": "protects"}, {"measurement": "protection against cisplatin induced hair cell loss, phalloidin-stained middle turn images", "setting": "[2]; 3 μM Oseltamivir and 150 μM Cisplatin", "value": "shows protection"}, {"measurement": "IC50", "setting": "[2]; Mus musculus, Oseltamivir added 1 h before cisplatin (150 μM), 24 h, read-out: IC50 (percent protection from cisplatin-induced hair cell death)", "value": 0.45, "unit": "µM"}, {"measurement": "LD50", "setting": "[2]; Oseltamivir alone, cochlear explants, 24 h", "value": "> 100", "unit": "µM"}, {"measurement": "protection, auditory brainstem response measurements", "setting": "adult P42 FVB mice [3]; 100 mg/kg oral gavage twice daily for three days, first dose 45 minutes before noise (100 dB, 8-16 kHz, two hours), ABR 14 days after noise", "value": "24-28 dB"}, {"measurement": "ABR threshold shift vs noise-exposed control", "setting": "adult P42 FVB mice [3]; 100 mg/kg oral twice daily, three days, starting 45 minutes before noise, 14 days after noise", "value": "Significant protection against hearing loss"}, {"measurement": "hit in screen for cisplatin-induced cell-death protection", "setting": "[4]", "value": "one of the best hits"}, {"measurement": "16-kHz wave-1 amplitude", "setting": "[5]; 50 mg/kg Oseltamivir, 90 SPL, multi-dose cisplatin", "value": "increased"}, {"measurement": "auditory brainstem response threshold shift vs cisplatin without treatment", "setting": "[5]; 8, 16, and 32 kHz, 10 and 50 mg/kg Oseltamivir oral twice-daily, cisplatin 3 mg/kg IP, 3 cycles", "value": "lower"}, {"measurement": "percent of total mice surviving", "setting": "[5]; 40 days after beginning of cisplatin exposure, 10 mg/kg and 50 mg/kg", "value": "increased"}, {"measurement": "outer hair cells, Myosin VI stained basal, middle, apical cochlear regions", "setting": "[5]; multi-dose cisplatin regimen, 10 or 50 mg/kg Oseltamivir", "value": "preserved outer hair cells in all regions"}]}
